The assay has as its target PI3K (Homo sapiens, UniProt P42336). Description: Fluorescence polarization assay for PI3K.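 Further: PI3K kinase reaction on PIP2 with ATP, 30-60 min, product sensed by GST-GRP with red probe in fluorescence polarization (mP), controls without enzyme and at zero time.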 It is filed as biochemical. The settings on record: PI3Kα; read-out: PI3Kα IC50. For orientation: In fluorescence polarisation assays a small probe gives low polarisation when free and higher when bound to something large.

Sequence of PI3K (P42336 whole entry): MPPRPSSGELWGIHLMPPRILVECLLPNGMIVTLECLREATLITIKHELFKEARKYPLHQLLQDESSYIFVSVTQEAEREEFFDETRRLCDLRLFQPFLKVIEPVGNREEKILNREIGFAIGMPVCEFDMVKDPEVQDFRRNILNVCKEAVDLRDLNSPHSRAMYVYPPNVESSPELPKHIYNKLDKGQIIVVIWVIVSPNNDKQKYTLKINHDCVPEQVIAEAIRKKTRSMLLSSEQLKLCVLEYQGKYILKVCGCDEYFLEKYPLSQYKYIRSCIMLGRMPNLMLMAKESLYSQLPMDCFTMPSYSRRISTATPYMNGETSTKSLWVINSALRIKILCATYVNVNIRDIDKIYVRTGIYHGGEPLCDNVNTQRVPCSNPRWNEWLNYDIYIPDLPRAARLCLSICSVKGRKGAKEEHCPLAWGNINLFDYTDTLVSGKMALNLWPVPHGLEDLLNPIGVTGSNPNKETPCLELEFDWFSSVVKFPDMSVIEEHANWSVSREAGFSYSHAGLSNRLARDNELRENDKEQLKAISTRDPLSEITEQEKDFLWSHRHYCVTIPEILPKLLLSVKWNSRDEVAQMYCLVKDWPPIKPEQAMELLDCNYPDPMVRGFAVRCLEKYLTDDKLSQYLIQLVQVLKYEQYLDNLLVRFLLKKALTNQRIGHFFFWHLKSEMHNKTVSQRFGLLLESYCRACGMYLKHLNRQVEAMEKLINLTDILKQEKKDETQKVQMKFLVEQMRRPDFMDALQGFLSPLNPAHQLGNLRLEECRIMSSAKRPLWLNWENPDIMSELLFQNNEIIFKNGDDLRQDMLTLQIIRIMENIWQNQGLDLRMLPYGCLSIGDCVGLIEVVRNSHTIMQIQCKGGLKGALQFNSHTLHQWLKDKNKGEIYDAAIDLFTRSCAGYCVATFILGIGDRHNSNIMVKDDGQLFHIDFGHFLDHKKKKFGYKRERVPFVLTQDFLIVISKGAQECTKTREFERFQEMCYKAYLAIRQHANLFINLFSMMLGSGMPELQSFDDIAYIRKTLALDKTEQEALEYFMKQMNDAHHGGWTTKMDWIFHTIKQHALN
Sequence of PI3K (P27986 whole entry partner): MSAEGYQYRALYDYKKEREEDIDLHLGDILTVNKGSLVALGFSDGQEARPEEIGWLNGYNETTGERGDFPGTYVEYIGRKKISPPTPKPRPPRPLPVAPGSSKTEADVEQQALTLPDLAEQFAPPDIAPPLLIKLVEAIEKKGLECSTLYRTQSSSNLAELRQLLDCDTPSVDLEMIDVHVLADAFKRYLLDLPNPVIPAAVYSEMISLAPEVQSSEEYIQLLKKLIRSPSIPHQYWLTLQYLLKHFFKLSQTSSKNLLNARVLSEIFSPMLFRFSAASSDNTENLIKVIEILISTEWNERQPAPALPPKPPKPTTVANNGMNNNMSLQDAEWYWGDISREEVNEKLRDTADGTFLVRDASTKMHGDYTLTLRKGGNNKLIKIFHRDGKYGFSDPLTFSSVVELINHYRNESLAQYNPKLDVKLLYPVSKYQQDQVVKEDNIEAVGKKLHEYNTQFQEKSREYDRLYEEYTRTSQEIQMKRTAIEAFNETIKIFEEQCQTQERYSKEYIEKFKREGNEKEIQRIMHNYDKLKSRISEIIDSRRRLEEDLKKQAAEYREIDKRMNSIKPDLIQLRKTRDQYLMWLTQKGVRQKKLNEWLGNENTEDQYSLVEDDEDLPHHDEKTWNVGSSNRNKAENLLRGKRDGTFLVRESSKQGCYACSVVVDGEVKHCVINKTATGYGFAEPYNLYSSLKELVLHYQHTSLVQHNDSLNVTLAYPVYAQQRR

A word on the IC50: it is the concentration that gives 50% inhibition. On to `Oc1cncc(-c2nc(N3CCOCC3)c3cnn(C4CCN(Cc5ccccc5)CC4)c3n2)c1` [Compound 250, 5-[1-(1-benzylpiperidin-4-yl)-4-morpholin-4-yl-1H-pyrazolo[3,4-d]pyrimidin-6-yl]pyridin-3-ol], for which the IC50 was found to be 37 nM.
As for `CNC(=O)Nc1ccc(-c2nc(N3CCOCC3)c3cnn(C4CCN(Cc5ccc(OC)c(O)c5)CC4)c3n2)cc1` [Compound 643, 1-(4-{1-[1-(3-hydroxy-4-methoxybenzyl)piperidin-4-yl]-4-morpholin-4-yl-1H-pyrazolo[3,4-d]pyrimidin-6-yl}phenyl)-3-methylurea], the IC50 is 57 nM.
As for `Cn1ncc2c(N3CCOCC3)nc(-c3cccnc3)nc21` [Compound 1], the IC50 turned out to be 813 nM.
For `CNC(=O)Nc1ccc(-c2nc(N3CCOCC3)c3cnn(C4CCCCO4)c3n2)cc1` (stereo not shown) [Example 235, 1-methyl-3-{4-[4-morpholin-4-yl-1-(tetrahydro-2H-pyran-2-yl)-1H-pyrazolo[3,4-d]pyrimidin-6-yl]phenyl}urea], the IC50 came to 4920 nM.
In the case of `COC(=O)Nc1ccc(-c2nc(N3CCOCC3)c3cnn(C4CCN(C(=O)c5ccc(F)cc5)CC4)c3n2)cc1` [Compound 689, methyl (4-{1-[1-(4-fluorobenzoyl)piperidin-4-yl]-4-morpholin-4-yl-1H-pyrazolo[3,4-d]pyrimidin-6-yl}phenyl)carbamate], the IC50 was determined as 989 nM.
With `O=C(NCc1ccccc1)Nc1ccc(-c2nc(N3CCOCC3)c3cnn(C4CCN(Cc5ccccc5)CC4)c3n2)cc1` [Compound 258, 1-benzyl-3-{4-[1-(1-benzylpiperidin-4-yl)-4-morpholin-4-yl-1H-pyrazolo[3,4-d]pyrimidin-6-yl]phenyl}urea], the IC50 was 533 nM.
The value for `CN(C)CCC(=O)Nc1ccc(-c2nc(N3CCOCC3)c3cnn(-c4ccccc4)c3n2)cc1` [Compound 133] was 223 nM; that for `COc1cccc(C(=O)Nc2ccc(-c3nc(N4CCOCC4)c4cn[nH]c4n3)cc2)c1` [Compound 277, 3-methoxy-N-[4-(4-morpholin-4-yl-1H-pyrazolo[3,4-d]pyrimidin-6-yl)phenyl]benzamide] was 440 nM; that for `CNC(=O)Nc1ccc(-c2nc(N3CCOCC3)c3cnn(C4CCN(Cc5ccc(Cl)cc5)CC4)c3n2)cc1` [Compound 639, 1-(4-{1-[1-(4-chlorobenzyl)piperidin-4-yl]-4-morpholin-4-yl-1H-pyrazolo[3,4-d]pyrimidin-6-yl}phenyl)-3-methylurea] was 18 nM.
Consider `NC(=O)Cc1ccc(-c2nc(N3CCOCC3)c3cnn(C4CCN(Cc5ccccc5)CC4)c3n2)cc1` [Compound 370, 2-{4-[1-(1-benzylpiperidin-4-yl)-4-morpholin-4-yl-1H-pyrazolo[3,4-d]pyrimidin-6-yl]phenyl}acetamide], for which the IC50 stood at 3130 nM.
On to `N#CN=C(N)Nc1ccc(-c2nc(N3CCOCC3)c3cnn(C4CCN(C(=O)c5cccnc5)CC4)c3n2)cc1` [Compound 655, 2-cyano-1-(4-{4-morpholin-4-yl-1-[1-(pyridin-3-ylcarbonyl)piperidin-4-yl]-1H-pyrazolo[3,4-d]pyrimidin-6-yl}phenyl)guanidine], for which the IC50 was 344 nM.
Regarding `O=C(NCCF)Nc1ccc(-c2nc(N3CCOCC3)c3cnn(C4CCN(C(=O)c5cccnc5)CC4)c3n2)c(F)c1` [Compound 707, 1-(2-fluoroethyl)-3-(3-fluoro-4-{4-morpholin-4-yl-1-[1-(pyridin-3-ylcarbonyl)piperidin-4-yl]-1H-pyrazolo[3,4-d]pyrimidin-6-yl}phenyl)urea], the IC50 stood at 1730 nM.
Turning to `O=C(Nc1ccccc1)Nc1cc(F)c(-c2nc(N3CCOCC3)c3cnn(C4CCN(C(=O)c5cccnc5)CC4)c3n2)cc1F` [Compound 713, 1-(2,5-difluoro-4-{4-morpholin-4-yl-1-[1-(pyridin-3-ylcarbonyl)piperidin-4-yl]-1H-pyrazolo[3,4-d]pyrimidin-6-yl}phenyl)-3-phenylurea], the IC50 is 173 nM.

The record behind these values is US20080234262A1 (Wyeth, priority 2007, published 2008).
